Reference: the SangsterLogP compilation

Columns and labels:
[1] = method code SF-AS, from DOI: 10.1016/0223-5234(96)88239-0; settings: pH 2.0
[2] = not given; remark: listed apart in the source
[3] = method code SF-TN, from DOI: 10.1002/jps.2600741210, PMID: 4087196; settings: pH 7.4
[4] = method code SF, from DOI: 10.1248/cpb.34.4787
[5] = not given; remark: listed apart in the source
[6] = not given; remark: listed apart in the source
[7] = not given; remark: listed apart in the source
[8] = method code SF-AS, from DOI: 10.1016/s0090-9556(25)07961-9, PMID: 6130927; settings: pH 12.0
[9] = method code SF-RC, from DOI: 10.1111/j.1399-3054.1990.tb08712.x
[10] = method code SF-RC,AS, from DOI: 10.1021/es60170a013; settings: pH 8.7
[11] = method code SF-RC, from DOI: 10.1016/s0969-8051(00)00080-9, PMID: 10832080; settings: pH 13.0
[12] = not given; remark: listed apart in the source
[13] = not given; remark: listed apart in the source
[14] = method code SF, from He, J.; Lang, L.; Zhang, Q.; Dong, L.; Chen, F.; Xu, G. (2010). Study on physicochemical properties of helicid. China Pharmacy, (1)23-25.; settings: pH 2.0
[15] = method code SF-GLC, from DOI: 10.1016/j.chemosphere.2013.04.065, PMID: 23732011
[16] = method code SF-AS, from DOI: 10.1021/jf60177a051
[17] = method code SF-AS, from PMID: 301777
[18] = method code SF-AS, from DOI: 10.1211/0022357001773940, PMID: 10757413; settings: pH 7.4
[19] = method code SF-RC, from DOI: 10.1021/jm8013376, PMID: 19216563; settings: pH 7.4
[20] = method code SF-AS, from DOI: 10.1002/jps.2600751012, PMID: 3795027
[21] = not given; remark: listed apart in the source
[22] = not given; remark: listed apart in the source
[23] = not given; remark: listed apart in the source
[24] = not given; remark: listed apart in the source
[25] = method code …, from Pirumyan, G.; Martiryan, A.; Skurlator, Yu.; Petrosyan, D.; Akhnazaryan, A.; Arutyunyan, V. (1988). Transformations of pyrazolone compounds for fish farming in aqueous medium. Chemical Journal of …
[26] = method code SF-RC, from DOI: 10.1248/cpb.39.104, PMID: 2049793; settings: pH 7.4
[27] = method code SF-RC, from DOI: 10.1016/j.apradiso.2005.06.012, PMID: 16131471; settings: pH 7.5
[28] = not given; remark: listed apart in the source
[29] = method code SF-GLC, from DOI: 10.1021/es00171a006
[30] = method code SF-AS, from PMID: 582409; settings: pH 7.4
[31] = not given; remark: listed apart in the source
[32] = method code SF-HPLC, from DOI: 10.1021/jm970790w, PMID: 9548821; settings: pH 7.4
[33] = method code SF-AS, from DOI: 10.1002/jps.2600620542, PMID: 4705706
[34] = method code SF-EPR, from DOI: 10.1007/bf01870789, PMID: 2549250; settings: pH 12.0
[35] = not given; remark: listed apart in the source
[36] = method code SF-HPLC, from DOI: 10.3109/03639045.2012.690417, PMID: 22670797
[37] = not given; remark: listed apart in the source
[38] = method code SF-AS, from DOI: 10.1021/js960328j, PMID: 9050798; settings: pH 6.6
[39] = method code SF-HPLC, from DOI: 10.1016/s0223-5234(97)84356-5
[40] = method code SF-GLC, from DOI: 10.1016/s0021-9673(00)81319-9
[41] = method code G-GLC, from DOI: 10.1021/es00169a004
[42] = not given; remark: listed apart in the source
[43] = not given; remark: listed apart in the source
[44] = method code SF, from DOI: 10.1016/j.ejps.2007.04.003, PMID: 17540545; settings: pH 3.0
[45] = not given; remark: listed apart in the source
[46] = method code SF-AS, from DOI: 10.1002/em.2850200210, PMID: 1505530
[47] = method code SF, from DOI: 10.1177/1087057110396372, PMID: 21343602; settings: pH 7.4
[48] = not given; remark: listed apart in the source
[49] = method code SF, from DOI: 10.1016/s0968-0896(00)00025-0, PMID: 10882003
[50] = not given; remark: listed apart in the source

For `CCCCCCCCn1sc(Cl)c(Cl)c1=O`, the logP was 4.9.

Work on `Cn1c(C(=O)O)cnc1C(=O)c1ccc([N+](=O)[O-])cc1` yielded a logD [1] of 2.14.

Compound `Fc1cccc(-n2nnnc2Oc2ccccc2)c1` has a logP [2] of 3.6.

Work on `CCCCOC(=O)[C@@H](N)Cc1ccc(O)cc1` yielded a logD [3] of 1.8.

Work on `O=C(O)c1ccc(-c2ccccc2)cc1` yielded a logP [4] of 3.75.

With `CCCCCCc1ccccc1` the logP [5] was 5.24.

`c1cc2c3c(cccc3c1)CC2` showed a logP [6] of 3.98.

`CCCOCCc1ccc(O)c(O)c1` showed a logP [7] of 1.64.

`CC(C)[C@@H](N)Cc1ccccc1` gave a logD [8] of 2.59.

In the case of `c1ccc(CNc2ncnc3[nH]cnc23)cc1`, the logP [9] is reported as 1.57.

With `Nc1ccc(-c2ccc(N)c(Cl)c2)cc1Cl` the logD [10] was 3.51.

In the case of `CN1C2CCC1C(c1ccc(Cl)nc1)C2` (stereo unspecified), the logD [11] is reported as 2.42.

Compound `Nc1ccc(S(=O)(=O)Nc2cccc(Cl)c2Cl)cc1` has a logP [12] of 2.62.

For `CCCCOC(=O)COc1cc(Cl)c(Cl)cc1Cl`, the logP [13] was 4.81.

For `O=Cc1ccc(O[C@@H]2O[C@H](CO)[C@@H](O)[C@@H](O)[C@H]2O)cc1`, the logD [14] was -1.08.

Work on `C=CCOc1ccccc1OCC=C` yielded a logP [15] of 2.7.

`Cc1nc(C)c(C(=O)Nc2ccccc2)s1` showed a logP [16] of 1.08.

Work on `CCc1nc(N)nc(N)c1-c1ccc(Cl)c(Cl)c1` yielded a logP [17] of 3.19.

`CCc1c(O)c(=O)ccn1CCCn1ccnc1` showed a logD [18] of -0.32.

Work on `Oc1ccc2nc(-c3ccccc3)sc2c1` yielded a logD [19] of 2.48.

`O=C(OCc1ccccc1)c1cccnc1` gave a logP [20] of 2.4.

Work on `O=S(c1cc(Cl)cc(Cl)c1O)c1cc(Cl)cc(Cl)c1O` yielded a logP [21] of 4.13.

For `O=c1[nH]c2c(c(=O)n1C1CCCCC1)CCC2`, the logP [22] was 1.9.

Work on `FCCCN1CCC[C@H]1COc1cccnc1` yielded a logP [23] of 2.2.

`Cc1cc2cccc(C)c2cc1C` gave a logP [24] of 4.73.

`CC1(C)CC(=O)NN1C=NNc1ccccc1` gave a logP [25] of 0.26.

`CNC(=S)NN=C(C)C(C)(C)C(C)=NNC(=S)NC` showed a logD [26] of 2.51.

Compound `COc1ccc2[nH]c(I)c(CCNC(C)=O)c2c1` has a logD [27] of 2.52.

In the case of `C=CC(=O)OCC(CC)CCCC` (stereo unspecified), the logP [28] is reported as 4.29.

With `Clc1cc(Cl)c2c(c1Cl)Oc1ccccc1O2` the logP [29] was 5.57.

`COc1ccc(-c2nc3c(N)nc(N)nc3nc2N)cc1` gave a logD [30] of 1.19.

With `O=C(O)c1cc(-c2ccc(F)cc2F)ccc1O` the logP [31] was 3.95.

With `CC1(C)O[C@@H]2[C@@H](CO[C@@]3(COS(N)(=O)=O)OC(C)(C)O[C@@H]23)O1` the logD [32] was 0.53.

For `O=C(c1ccncc1)c1ccc(Cl)cc1`, the logP [33] was 2.61.

`CN(C)C1CC(C)(C)N(O)C(C)(C)C1` showed a logD [34] of 1.13.

Work on `CCOP(=O)(OCC)Oc1cc(C)nc(NC(C)C)n1` yielded a logP [35] of 2.07.

In the case of `CC(C)(C)c1ccc(/C=N/NC(N)=S)cc1`, the logP [36] is reported as 3.9.

In the case of `N#Cc1ccc(NS(=O)(=O)c2ccc(N)cc2)cc1`, the logP [37] is reported as 1.43.

For `CCCS(=O)c1ccc2[nH]c(NC(=O)OC)nc2c1` (stereo unspecified), the logD [38] was 1.27.

Work on `CC(=O)Nc1nc2c(ncn2COCCOC(C)=O)c(=O)[nH]1` yielded a logP [39] of -0.83.

With `Clc1cccc(-c2ccccc2)c1` the logP [40] was 4.71.

`Clc1cc(Cl)c(-c2c(Cl)c(Cl)c(Cl)c(Cl)c2Cl)c(Cl)c1Cl` gave a logP [41] of 7.52.

With `O=C(Oc1ccccc1)c1ccccc1` the logP [42] was 3.5.

Work on `CC(C)c1cccc(C(C)C)c1O` yielded a logP [43] of 3.63.

In the case of `CCn1cc(C(=O)O)c(=O)c2cc3c(cc21)OCO3`, the logD [44] is reported as 1.01.

Compound `O=[N+]([O-])c1ccc(Oc2ccc(C(F)(F)F)cc2[N+](=O)[O-])cc1` has a logP [45] of 3.7.

`O=C1c2ccccc2-c2cc([N+](=O)[O-])ccc21` showed a logP [46] of 3.06.

Compound `c1ccc(Nc2ccccc2)cc1` has a logD [47] of 3.57.

With `Clc1cc(Cl)c(Oc2ccccc2)cc1Cl` the logP [48] was 5.44.

In the case of `Cc1[nH]c(=O)c(C#N)cc1-c1ccncc1`, the logP [49] is reported as 0.42.

`CCC(C)c1ccccc1OC(=O)NC` (stereo unspecified) gave a logP [50] of 2.8.
